# Entries after “also recorded” stand apart in the source; their conditions may differ.
# Columns and labels:
# [1] = system: Male Sprague Dawley (SD) rats; experiment: Cortagine-induced visceral hypersensitivity to colorectal distension; assay type: in vivo, rat
# Text: Male Sprague Dawley (SD) rats (250-275 g, Harlan Labs, Indianapolis, Ind.) were kept under standard conditions of humidity and temperature and a 12-hour light/dark cycle (lights on 6.00 a.m.). Animals were group housed and had access to food ad libitum. Prior to the start of studies, animals were acclimatized to handling and administration of treatments (oral syringe feeding and subcutaneous injection). At the end of the experiments, animals were sacrificed by CO2 gas inhalation followed by thoracotomy or isoflurane anesthesia followed by decapitation with appropriate approved animal protocols.
# On the day of the experiments, rats were injected intraperitoneally (IP) with cortagine (10 μg/kg, 0.8 ml/kg in DMSO/cremophor/isotonic saline (1:1:8 v:v:v). Cortagine, a selective corticotropin releasing factor receptor 1 (CRF1) agonist, prepared as described previously (Rivier et al. J. Med. Chem. 2007: 50:1668-1674), was stored in a powder form at −80° C. and prepared in sterile water (12.5 μg/ml) immediately before use. This dose had previously been established to show a significant increase in defecation, induction of diarrhea and increase in colonic motility, permeability and visceral pain in rats. (Larauche et al. Am. J. Physiol. Gastrointest. Liver Physiol. 2009: 297:G215-G227)
# FAAH inhibitor compounds URB597 [3′-(aminocarbonyl)biphenyl-3-yl cyclohexyl carbamate], compound A and compound B were formulated as suspensions in DMSO/cremophor/isotonic saline (1:1:8 v:v:v). The concentration of the respective dosing FAAH inhibitor compound suspensions were 6 mg/ml for 30 mg/kg dose of compound A or compound B; 2 mg/ml for the 10 mg/kg dose of compound B; and 1.5 mg/ml for the 3 mg/kg dose of URB597. Compound A, compound B or vehicle treatment was administered to rats by per os (PO) route at dose-volume of 5 ml/kg. URB597 treatment was administered to rats by subcutaneous (SC) route at dose volume of 2 ml/kg. The vehicle for the PO route was DMSO/cremophor/isotonic saline (1:1:8 v:v:v). Vehicle (PO), URB597 (SC), compound A and compound B (PO) were administered to non-fasted rats, restrained by hand. The regimen of administration of URB597, compound A and compound B involved one delivery (PO or SC) performed 120 min before IP injection of cortagine.
# Visceral pain was assessed using a non-invasive pressure transducer system referred to as “sensor balloon” as previously described (Larauche et al. Am. J. Physiol. Gastrointest. Liver Physiol. 2009: 297:G215-G227; Ness et al. Brain Res. 1988: 450:153-169). Briefly, in adult non-fasted SD rats, a 4-5 cm “sensor balloon” lubricated with surgical lubricant (Surgilube, Fougera, Melville) was inserted intra-anally under brief isoflurane anesthesia. The “sensor balloon” was positioned such that its distal end was 1 cm proximal to the anal verge and secured in place by tapping the balloon catheter to the tail. Rats were placed individually in Boolman's cage and allowed to recover from anesthesia and habituation. The colorectal procedure was performed using the Distender Series Ilir dual barostat (G&J Electronics Inc, Toronto, Ontario). The CRD protocol consisted of 2 CRD at 60 mmHg to unfold the balloon followed by 2 sets of CRD at 10, 20, 40 and 60 mmHg, 20 s duration, 4-min inter-stimulus interval. The intra-luminal colonic pressure (ICP) was recorded for 20 s before, during and after termination of CRD. […]
# [2] = system: Female Wistar rats; experiment: Partial restraint stress-induced hyperalgesia model; assay type: in vivo, rat; settings: 3 mg/kg or 10 mg/kg SC one hour prior to 2 h PRS, CRD 15 minutes after PRS
# Description: Female Wistar rats surgically prepared for electromyography as described in Example 1 were used to evaluate the effects of the FAAH inhibitors (a) compound A or (b) compound B, on colorectal sensitivity and compliance after a 2 hour partial restraint stress session.
# Partial restraint stress (PRS), a relatively mild stress, was induced as previously described (Morteau et al. Dig. Dis. Sci. 1994: 39:1239-48; “Guanylate cyclase C-mediated antinociceptive effects of linaclotide in rodent models of visceral pain”, Eutamene H, Bradesi S, Larauche M, Theodorou V, Beaufrand C, Ohning G, Fioramonti J, Cohen M, Bryant A P, Kurtz C, Currie M G, Mayer E A, Bueno L, Neurogastroenterology and motility —2010 Volume: 22 p. 312-322; “Stress-induced changes in intestinal transit in the rat: a model for irritable bowel syndrome”, Williams C L, Villar R G, Peterson J M, Burks T F, Gastroenterology—1988 p. 611-21). Female rats were lightly anesthetized with diethyl ether and their shoulders, upper forelimbs and thoracic trunk were wrapped in a confining harness of paper tape to restrict, but not prevent body movements. Control sham-stress animals were anesthetized but not wrapped. […]
# Rats were treated orally with compound A (30 mg/kg in DMSO/cremophor/isotonic saline (1:1:8 v:v:v), n=8), or vehicle only (DMSO/cremophor/isotonic saline (1:1:8 v:v:v), 1 mL, n=9) with or without 2 hour PRS sessions. The number of abdominal contractions was recorded by electromyography per 5-minute period (y axis) for each distension pressure of 0 mmHg, 15 mmHg, 30 mmHg, 45 mmHg and 60 mmHg (x axis); the ? symbols represent the results for the control+vehicle group (n=9); the symbols ? represent the results for the stress+vehicle group (n=9); the symbols ? represent the results for the stress+compound A group (n=8). Data are mean values with SEM.
# Rats were treated orally with compound B (30 mg/kg in DMSO/cremophor/isotonic saline (1:1:8 v:v:v), n=9), or vehicle only (DMSO/cremophor/isotonic saline (1:1:8 v:v:v), 1 mL, n=9) with or without 2 hour PRS sessions. The number of abdominal contractions was recorded by electromyography per 5-minute period (y axis) for each distension pressure of 0 mmHg, 15 mmHg, 30 mmHg, 45 mmHg and 60 mmHg (x axis); the symbols ? represent the results for the control+vehicle group (n=9); the symbols ? represent the results for the stress+vehicle group (n=9); and the symbols ? represent the results for the stress+compound B group (n=9). Data are mean values with SEM.
# The effect of FAAH inhibitor URB597 was tested at 3 mg/kg and 10 mg/kg in the PRS model of visceral hyperalgesia essentially as described in Examples 1 and 2. URB597 was formulated as a suspension in vehicle [DMSO/cremophor/isotonic saline (1:1:8 v:v:v)]. […]
# [3] = 3 mg/kg SC 2 h before cortagine
# [4] = 3 mg/kg SC 2 h before cortagine, n=11
# [5] = 3 mg/kg SC 2 h before cortagine, normalized to baseline VMR at 60 mmHg
compound,measurement,setting,value
"NC(=O)c1cccc(-c2cccc(OC(=O)NC3CCCCC3)c2)c1 [URB597, 3′-(aminocarbonyl) biphenyl-3-yl cyclohexyl carbamate, reference compound]",% hypersensitive rats at 40 mmHg,[1]; [3],55%
same,rats with increased VMR over baseline between 0 and 50% at 60 mmHg,[1]; [3],18%
same,rats with increased VMR over baseline between 51 and 100% at 60 mmHg,[1]; [3],9%
same,rats with increased VMR over baseline over 101% at 60 mmHg,[1]; [3],9%
same,effect on cortagine-induced visceral hypersensitivity to CRD,"[1]; 3 mg/kg SC 2 h before cortagine 10 μg/kg IP, 40 and 60 mmHg",abolished the visceral hypersensitivity; also recorded: prevented the visceral hypersensitivity
same,rats presenting a decrease in VMR compared to baseline at 60 mmHg,[1]; [4],64%
same,rats presenting an increased VMR over baseline (% hypersensitive rats) at 60 mmHg,[1]; [4],36%
same,VMR to CRD at 40 mmHg,[1]; [5],81.89±16.38%
same,VMR to CRD at 60 mmHg,[1]; [5],97.62±20.02%
same,VMR versus vehicle/cortagine rats at 60 mmHg CRD,"[1]; second trial, URB597 3 mg/kg SC 2 h before cortagine IP, n=7, p<0.001",significant differences
same,antihyperalgesic effects in the cortagine model of visceral pain,[1]; summary statement referring to Example 3,did exhibit antihyperalgesic effects
same,number of abdominal contractions (antihyperalgesic effect) in PRS model,[2],did not exhibit an antihyperalgesic effects
same,number of abdominal contractions (antihyperalgesic effect) in PRS model,[2]; listed as URB-597,no differences in number of abdominal contractions were observed
